Assay results published in PMC7058083, “Structural basis of ligand binding modes at the human formyl peptide receptor 2” (Nature Communications, 2020).
Positions count from the first letter of the chain named. Residues, ends and D or L forms follow the SMILES beside them. *: point of attachment. For = O=C*

Key:
Assay in all cases: Competition binding of fMLFK with WK(FITC)YMVm, flow cytometry on HEK293F cells
[1] = target: T1, wild-type (WT) and mutant FPR2 (Homo sapiens, UniProt P25090, H102F); details: FPR2 H102F; mean ± s.e.m., n=3; SEM
T1 construct: expressed in transfected cells; host or cells: HEK293F
T1 sequence (P25090 1-351 H102F): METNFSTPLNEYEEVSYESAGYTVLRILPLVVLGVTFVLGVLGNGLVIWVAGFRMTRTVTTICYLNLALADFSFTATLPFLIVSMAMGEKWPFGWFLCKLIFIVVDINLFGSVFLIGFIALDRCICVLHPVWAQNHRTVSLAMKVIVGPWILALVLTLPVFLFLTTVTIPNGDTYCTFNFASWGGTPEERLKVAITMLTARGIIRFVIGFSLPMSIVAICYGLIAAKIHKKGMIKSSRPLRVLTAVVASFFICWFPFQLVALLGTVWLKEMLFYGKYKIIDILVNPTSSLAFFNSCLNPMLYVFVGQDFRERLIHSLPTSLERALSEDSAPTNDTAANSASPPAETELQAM
Description: (§1) Flag-tagged wild-type and mutant FPR2s were cloned into the pTT5 vector and expressed in HEK293F cells. The cells were harvested, and washed with Hanks’ Balanced Salt Solution (HBSS) buffer supplemented with 0.5% bovine serum albumin and 20 mM HEPES, pH 7.4. The cells were then resuspended in the same buffer to the final concentration of 1 × 10^6 cells per ml. The cell-surface expression was measured as mentioned above. […] Mean fluorescent intensity of each well was then read by a FCM (flow cytometry) reader (Millipore). […] For competitive binding of fMLFK, cells were plated in 96-well plates (100,000 cells per well), and incubated with WK(FITC)YMVm at 4 °C for 1 h. The following concentrations of WK(FITC)YMVm were used: 10 nM (wild type, L81^2.60F, E89G, and V105^3.32A), 30 nM (D281^7.32G), 40 nM (H102^3.29F, V160^4.60A, L268^ECL3A, N285^7.36A, and F292^7.43A), and 100 nM (L164^4.64A and T177A). Then increasing concentrations of fMLFK (100 nM–1 mM) were added, and incubated for another 1 h on ice. Mean fluorescent intensity values were measured by flow cytometry. Data were analyzed using Prism 7.0.

[2] = target: T2, wild-type (WT) and mutant FPR2 (Homo sapiens, UniProt P25090, L81F); details: FPR2 L81F; mean ± s.e.m., n=4; SEM
T2 construct: expressed in transfected cells; host or cells: HEK293F
T2 sequence (P25090 1-351 L81F): T1 sequence (P25090 1-351 H102F) with L81F, F102H
Description: as §1

[3] = target: T3, wild-type (WT) and mutant FPR2 (Homo sapiens, UniProt P25090, E89G); details: FPR2 E89G; mean ± s.e.m., n=3; SEM
T3 construct: expressed in transfected cells; host or cells: HEK293F
T3 sequence (P25090 1-351 E89G): T1 sequence (P25090 1-351 H102F) with E89G, F102H
Description: as §1

[4] = target: T4, wild-type (WT) and mutant FPR2 (Homo sapiens, UniProt P25090, T177A); details: FPR2 T177A; mean ± s.e.m., n=4; SEM
T4 construct: expressed in transfected cells; host or cells: HEK293F
T4 sequence (P25090 1-351 T177A): T1 sequence (P25090 1-351 H102F) with F102H, T177A
Description: as §1

[5] = target: T5, wild-type (WT) and mutant FPR2 (Homo sapiens, UniProt P25090); details: FPR2 WT; mean ± s.e.m., n=5; SEM
T5 construct: expressed in transfected cells; host or cells: HEK293F
T5 sequence (P25090 1-351): T1 sequence (P25090 1-351 H102F) with F102H
Description: as §1

Structure (SMILES): CSCC[C@H](NC=O)C(=O)N[C@@H](CC(C)C)C(=O)N[C@@H](Cc1ccccc1)C(=O)N[C@@H](CCCCN)C(=O)O [fMLFK] (For-MLFK-OH)
- pKi, competition binding [1]: 3.85 ± 0.24
- pKi, competition binding [2]: 3.97 ± 0.27
- pKi, competition binding [3]: 3.49 ± 0.31
- pKi, competition binding [4]: 3.97 ± 0.21
- pKi, competition binding [5]: 4.08 ± 0.19
